# From patent US20240216401A1, “COMBINATION THERAPY BY USING AKR1C3-ACTIVATED COMPOUND WITH IMMUNE CHECKPOINT INHIBITOR” (OBI Pharma, Inc., priority 2021, published 2024)
# Values joined by “and” are separate entries in the source; they are usually repeats but may differ in a detail not shown here. Equal entries are not always repeated.
# Columns and labels:
# HepG2 tumor = assay: Example 2: tumor volume, tumor weight and TGI in HepG2 tumor bearing humanized mice; type: in vivo, Mus musculus; settings: G3 OBI-3424 (1 mg/kg)
# Method: 1. Species: Mus musculus • Strain: Advanced immunodeficiency mouse. • (NOD.CgPrkdc^scid Il2rg) • Source: Trineo Biotechnology Co., LTD.
# Each group contains six mice. The human hepatocellular carcinoma cell line HepG2 were subcutaneously inoculated to the advanced immune-deficiency mice. Total of 42 mice were included in this study.
# 2.2. […] The subcutaneous injection volume was […].
# 3.1. […] The injection was performed using insulin syringe with the dosage of 0.3 mg/kg or 1 mg/kg and the injection volume was 5 mL/kg. […] The reference item was administered for G1. The procedure followed the standards of sample administration. The starting day of test item administration was denoted as the first experimental day (DO).
# 3.2. […] The injection was performed using insulin syringe with the dosage of 20 mg/kg and injection volume of 10 mL/kg. […] The procedure followed the standards of sample administration.
# The measurement was performed from the next day of the inoculation. The tumor volumes were measured and recorded twice a week (Mon., Thur.). Tumor volume was calculated by ellipsoid equation according to the records ((major axis×minor axis×minor axis)×(π/6)).
# Tumor volumes were used to calculate tumor growth inhibition (TGI) rates according to the following formula: TGI (%)=[1−(Ti−T0)/(Ci−C0)]×100, where Ti and Ci indicate the mean tumor volume in the treatment groups and vehicle group at the end of the experiment (Day 30). Whereas, T0 and C0 indicate the mean tumor volumes in the treatment group and vehicle group at the beginning of the experiment (Day 0).
# (§1) Mice were sacrificed by CO2 euthanasia at the end of the study duration, and the connective tissue around tumor was resected. The tumor samples were then weighed and cut equally into three sections if the tumor weight over 400 mg. The tumor tissue was prepared for the isolation of tumor-infiltrating lymphocytes (TILs). The rest of one section was fixed in 10% formaldehyde and embedded in paraffin; the other was stored at a temperature below −70° C.
# [1] = tested on: NK cells in tumor-infiltrating lymphocytes; assay: Example 2: flow cytometry, percentage of NK cells in TILs; type: in vivo, Mus musculus; settings: individual animals and Mean
# Method: as §1
# The tumor samples were dissected into smaller fragments using scalpels and then digested with a cocktail of collagenase, DNase I, and Hyaluronidase (Collagenase #C5138, DNase I #D5025, Hyaluronidase #H6254, SigmaAldrich) for at least 2 hours.
# Cells were stained with the fluorescently conjugated surface antibodies and incubated for 30 minutes at 4° C., and then resuspended in staining buffer for flow cytometric analysis. Flow cytometry was done using a Navios EX Flow Cytometer (Beckman Coulter). Data were analyzed using the Kaluza Analysis Software (Beckman Coulter).
# [2] = tested on: preclinical models of T-ALL; settings: in vitro and in vivo; references 25, 26; cited from earlier work
# [3] = D30, individual animals, 1 mg/kg
# [4] = G2: OBI-3424 (0.3 mg/kg), 0.3 mg/kg
# [5] = G2: OBI-3424 (0.3 mg/kg), 0.3 mg/kg, mean
# [6] = G3: OBI-3424 (1 mg/kg), 1 mg/kg
# [7] = G3: OBI-3424 (1 mg/kg), 1 mg/kg, mean
structure (smiles),measurement,setting,value
"C[C@H](OP(=O)(N1CC1)N1CC1)c1ccc([N+](=O)[O-])c(Oc2cccc(C(=O)N(C)C)c2)c1 [OBI-3424, (S)-1-(3-(3-N,N-dimethylaminocarbonyl)phenoxyl-4-mtrophenyl)-1-ethyl-N,N′-bis(ethylene)phosphoramidate]",Tumor volume,"HepG2 tumor; D6, individual animals, 1 mg/kg",297.0 mm^3 and 328.4 mm^3 and 304.4 mm^3
same,Tumor volume,"HepG2 tumor; D9, individual animals, 1 mg/kg",337.5 mm^3 and 468.5 mm^3 and 334.0 mm^3
same,Tumor volume,"HepG2 tumor; D13, individual animals, 1 mg/kg",341.3 mm^3 and 492.3 mm^3 and 362.5 mm^3
same,Tumor volume,"HepG2 tumor; D16, individual animals, 1 mg/kg",359.9 mm^3 and 556.8 mm^3 and 465.2 mm^3
same,Tumor volume,"HepG2 tumor; D20, individual animals, 1 mg/kg",345.0 mm^3 and 552.1 mm^3 and 465.2 mm^3
same,Tumor volume,"HepG2 tumor; D23, individual animals, 1 mg/kg",260.7 mm^3 and 544.3 mm^3 and 419.2 mm^3
same,Tumor volume,"HepG2 tumor; D27, individual animals, 1 mg/kg",246.4 mm^3 and 426.0 mm^3 and 295.9 mm^3
same,Tumor weight,"HepG2 tumor; D30, group Mean",84.40 mg
same,Tumor volume,HepG2 tumor; [3],185.2 mm^3 and 295.5 mm^3 and 215.0 mm^3
same,Tumor weight,HepG2 tumor; [3],62.40 mg and 101.90 mg and 105.20 mg and 90.30 mg and 69.80 mg and 76.80 mg
same,NK cells (CD45^+CD56^+) CD45^+ Gated %,[1]; [4],6.33% and 8.78% and 8.87% and 10.05% and 2.25% and 6.70%
same,NK cells (CD45^+CD56^+) Cell count,[1]; [4],2.30 ×10^5 and 6.67 ×10^5 and 20.68 ×10^5 and 1.46 ×10^5 and 2.47 ×10^5 and 1.84 ×10^5
same,NK cells (CD45^+CD56^+) Total %,[1]; [4],1.18% and 3.26% and 3.83% and 6.83% and 1.00% and 2.54%
same,PD-1^+ NK cells (CD45^+CD56^+PD-1^+) Cell count,[1]; [4],1.65 ×10^5 and 2.21 ×10^5 and 10.85 ×10^5 and 0.31 ×10^5 and 2.17 ×10^5 and 0.83 ×10^5
same,PD-1^+ NK cells (CD45^+CD56^+PD-1^+) NK Gated %,[1]; [4],71.96% and 33.17% and 52.46% and 21.08% and 87.65% and 44.79%
same,PD-1^+ NK cells (CD45^+CD56^+PD-1^+) Total %,[1]; [4],0.85% and 1.08% and 2.01% and 1.44% and 0.88% and 1.14%
same,NK cells (CD45^+CD56^+) CD45^+ Gated %,[1]; [5],7.16%
same,NK cells (CD45^+CD56^+) Cell count,[1]; [5],5.90 ×10^5
same,NK cells (CD45^+CD56^+) Total %,[1]; [5],3.11%
same,PD-1^+ NK cells (CD45^+CD56^+PD-1^+) Cell count,[1]; [5],3.00 ×10^5
same,PD-1^+ NK cells (CD45^+CD56^+PD-1^+) NK Gated %,[1]; [5],51.85%
same,PD-1^+ NK cells (CD45^+CD56^+PD-1^+) Total %,[1]; [5],1.23%
same,NK cells (CD45^+CD56^+) CD45^+ Gated %,[1]; [6],3.99% (2×) and 5.65% and 6.00% and 4.05% and 4.24%
same,NK cells (CD45^+CD56^+) Cell count,[1]; [6],0.77 ×10^5 and 4.27 ×10^5 and 2.08 ×10^5 and 2.41 ×10^5 and 1.96 ×10^5 and 1.99 ×10^5
same,NK cells (CD45^+CD56^+) Total %,[1]; [6],2.64% and 3.38% and 2.95% and 2.44% and 2.63% and 2.46%
same,PD-1^+ NK cells (CD45^+CD56^+PD-1^+) Cell count,[1]; [6],0.26 ×10^5 and 1.64 ×10^5 and 1.02 ×10^5 and 1.77 ×10^5 (2×) and 1.04 ×10^5
same,PD-1^+ NK cells (CD45^+CD56^+PD-1^+) NK Gated %,[1]; [6],34.34% and 38.34% and 48.85% and 73.40% and 53.12% and 88.62%
same,PD-1^+ NK cells (CD45^+CD56^+PD-1^+) Total %,[1]; [6],0.91% and 1.30% and 1.44% and 1.79% and 1.40% and 2.18%
same,NK cells (CD45^+CD56^+) CD45^+ Gated %,[1]; [7],4.65%
same,NK cells (CD45^+CD56^+) Cell count,[1]; [7],2.25 ×10^5
same,NK cells (CD45^+CD56^+) Total %,[1]; [7],2.75%
same,PD-1^+ NK cells (CD45^+CD56^+PD-1^+) Cell count,[1]; [7],1.25 ×10^5
same,PD-1^+ NK cells (CD45^+CD56^+PD-1^+) NK Gated %,[1]; [7],56.11%
same,PD-1^+ NK cells (CD45^+CD56^+PD-1^+) Total %,[1]; [7],1.50%
same,efficacy against preclinical models of T-ALL (in words),[2],potent efficacy
